Data reported in patent US20250179055A1, “Substituted 2-(pyrrolidine-3-yl)acetic acid derivative, preparation method and use thereof” (INNOVSTONE THERAPEUTICS LIMITED, priority 2023, published 2025).

What was measured:
[1] = molecular target: Lp(a) assembly in HepG2 cells overexpressing ApoA protein (Homo sapiens (Human), UniProt P08519); experiment: ELISA assay on screening Lp(a) assembly inhibition; type: cell-based; conditions: HepG2 cells overexpressing ApoA protein, 24 h, ELISA of supernatant
How it was run: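 HepG2 cells overexpressing ApoA treated with diluted compounds for 24 h at 37 °C, 5% CO2; EACA (10 μL of 1.5 M) added before harvesting supernatant. Secreted Lp(a) quantified by sandwich ELISA; IC50 from four-parameter Hill fit of % inhibition versus concentration.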

[2] = Pharmacokinetic test in C57BL/6J female mice; type: in vivo; conditions: mouse, plasma; for bioavailability: gavage 10 mg/kg vs intravenous 2 mg/kg
Procedure: C57BL/6J female mice were used as test animals, and the drug concentration in plasma of C57BL/6J female mice at different time points after intravenous and gavage administration was determined to study the pharmacokinetic characteristics of the compound in C57BL/6J female mice.
Drug formulation: a certain amount of compound was weighed and normal saline was added to prepare clear, colorless solutions of 0.4 mg/mL (IV) and 1 mg/mL (PO).
Test procedure: C57BL/6J female mice were fasted overnight before gavage administration, followed by non-fasted intravenous administration. The intravenous dose was 2 mg/kg, and the gavage dose was 10 mg/kg. Approximately 0.03 mL of blood was collected from the orbital venous plexus at 0.083 (IV), 0.25, 0.5, 1, 2, 4, 8 and 24 h after administration, respectively, placed in a centrifuge tube containing EDTA-K2, centrifuged at 3000 rpm/min at 2-8° C. for 10 min to obtain plasma, and stored at −80° C.
Determination of the content of the compound to be tested in plasma of C57BL/6J female mice at different blood collection time points: 10 μL of plasma of C57BL/6J female mice collected at each time point after administration of LY3473329 and the compound of this application was added with 200 μL of 500 mM trichloroacetic acid aqueous solution to precipitate protein, which contained 100 ng/mL internal standard, vortexed for 1 min, centrifuged at 14000 rpm for 7 min for samples treated with test tubes, and centrifuged at 4000 rpm for 10 min for samples treated with 96-well plates, and 190 μL of the supernatant was transferred to a 96-well plate, and 8 μL of the supernatant was injected for LC-MS/MS analysis. WO2023078333A1 Example 6:12 μL of plasma of C57BL/6J female mice collected at each time point after administration was added with 240 μL of methanol to precipitate protein, which contained 10 ng/mL internal standard, vortexed for 1 min, centrifuged at 14000 rpm for 7 min for samples treated with test tubes, and centrifuged at 4000 rpm for 10 min for samples treated with 96-well plates. 220 μL of the supernatant was transferred to a 96-well plate, and 10 μL of the supernatant was taken for LC-MS/MS analysis.
After plasma concentrations were determined by LC/MS/MS analysis method, pharmacokinetic parameters (e.g. Cmax, AUC, T1/2, etc.) were calculated using WinNonlin software and noncompartmental analysis.

serum Lp(a) = experiment: Humanized mouse Lp(a) inhibition test; type: in vivo, humanized Lp(a) transgenic mouse; conditions: blood 8 h after last dose, humanized Lp(a) mice
Procedure: The in vivo pharmacodynamics of the compounds in reducing Lp(a) was evaluated in a humanized Lp(a) transgenic mouse model. Lp(a) mice were obtained by crossing mice expressing humanized apoB-100 with mice expressing humanized apo(a) containing 16 Kringle repeats. Female mice aged 8-9 weeks were selected for the test. Housing conditions: standard light cycle (12 h light/12 h dark), temperature 20-25° C., humidity 40-70%, free access to water and normal diet. is One day before the test, mice were divided into vehicle control group and test article group (n=5/group) according to body weight and baseline plasma Lp(a) concentration. Mice were orally administered with vehicle (normal saline, 10 mL/kg) or test compound (prepared with normal saline to 3 or 0.5 mg/mL, each mouse received 10 mL/kg), once daily (9:00 am) for 3 consecutive days, and blood was collected to determine the change of serum Lp(a). Eight hours after the last dose, 10 μL of blood was collected from the tail vein and transferred to a 1.5 mL centrifuge tube containing 90 μL of normal saline, mixed well, and left to stand on ice for 30 min. The above samples were centrifuged at 4° C., 3000 rpm for 10 min, and the supernatant was collected and placed on ice. The Lp(a) concentration in the supernatant was measured by double-antibody sandwich ELISA using an anti-apo(a) capture antibody and an HRP-conjugated anti-ApoB detection antibody, with TMB for color development. The reaction was stopped with 1 N sulfuric acid, and the OD value was read at 450 nm on a Tecan microplate reader. Inhibition rate was calculated for each dosing group. Inhibition rate (%)=(vehicle control group Lp(a) concentration or self pre-dose Lp(a) concentration post-dose Lp(a) concentration)/vehicle control group Lp(a) concentration or self pre-dose Lp(a) concentration*100.

[3] = Safety assessment test in rats (14-day oral gavage); type: in vivo; conditions: SD rats, 300 and 1000 mg/kg oral once daily for 14 days
Procedure: The safety of the compounds of the present invention was evaluated by oral gavage administration to SD rats as the test animals.
Test method: 50 SD rats (half males and half females) were randomly divided into vehicle control group and test article group according to their body weight. The vehicle saline or the compound of the present invention or LY3473329 (300 mg/kg, 1000 mg/kg) was administered orally once daily for 14 consecutive days.

[4] = intravenous administration, 2 mg/kg
[5] = po, gavage administration, 10 mg/kg
[6] = 5 mg/kg oral once daily for 3 days

Sequence of Lp(a) assembly in HepG2 cells overexpressing ApoA protein (P08519 20-2040): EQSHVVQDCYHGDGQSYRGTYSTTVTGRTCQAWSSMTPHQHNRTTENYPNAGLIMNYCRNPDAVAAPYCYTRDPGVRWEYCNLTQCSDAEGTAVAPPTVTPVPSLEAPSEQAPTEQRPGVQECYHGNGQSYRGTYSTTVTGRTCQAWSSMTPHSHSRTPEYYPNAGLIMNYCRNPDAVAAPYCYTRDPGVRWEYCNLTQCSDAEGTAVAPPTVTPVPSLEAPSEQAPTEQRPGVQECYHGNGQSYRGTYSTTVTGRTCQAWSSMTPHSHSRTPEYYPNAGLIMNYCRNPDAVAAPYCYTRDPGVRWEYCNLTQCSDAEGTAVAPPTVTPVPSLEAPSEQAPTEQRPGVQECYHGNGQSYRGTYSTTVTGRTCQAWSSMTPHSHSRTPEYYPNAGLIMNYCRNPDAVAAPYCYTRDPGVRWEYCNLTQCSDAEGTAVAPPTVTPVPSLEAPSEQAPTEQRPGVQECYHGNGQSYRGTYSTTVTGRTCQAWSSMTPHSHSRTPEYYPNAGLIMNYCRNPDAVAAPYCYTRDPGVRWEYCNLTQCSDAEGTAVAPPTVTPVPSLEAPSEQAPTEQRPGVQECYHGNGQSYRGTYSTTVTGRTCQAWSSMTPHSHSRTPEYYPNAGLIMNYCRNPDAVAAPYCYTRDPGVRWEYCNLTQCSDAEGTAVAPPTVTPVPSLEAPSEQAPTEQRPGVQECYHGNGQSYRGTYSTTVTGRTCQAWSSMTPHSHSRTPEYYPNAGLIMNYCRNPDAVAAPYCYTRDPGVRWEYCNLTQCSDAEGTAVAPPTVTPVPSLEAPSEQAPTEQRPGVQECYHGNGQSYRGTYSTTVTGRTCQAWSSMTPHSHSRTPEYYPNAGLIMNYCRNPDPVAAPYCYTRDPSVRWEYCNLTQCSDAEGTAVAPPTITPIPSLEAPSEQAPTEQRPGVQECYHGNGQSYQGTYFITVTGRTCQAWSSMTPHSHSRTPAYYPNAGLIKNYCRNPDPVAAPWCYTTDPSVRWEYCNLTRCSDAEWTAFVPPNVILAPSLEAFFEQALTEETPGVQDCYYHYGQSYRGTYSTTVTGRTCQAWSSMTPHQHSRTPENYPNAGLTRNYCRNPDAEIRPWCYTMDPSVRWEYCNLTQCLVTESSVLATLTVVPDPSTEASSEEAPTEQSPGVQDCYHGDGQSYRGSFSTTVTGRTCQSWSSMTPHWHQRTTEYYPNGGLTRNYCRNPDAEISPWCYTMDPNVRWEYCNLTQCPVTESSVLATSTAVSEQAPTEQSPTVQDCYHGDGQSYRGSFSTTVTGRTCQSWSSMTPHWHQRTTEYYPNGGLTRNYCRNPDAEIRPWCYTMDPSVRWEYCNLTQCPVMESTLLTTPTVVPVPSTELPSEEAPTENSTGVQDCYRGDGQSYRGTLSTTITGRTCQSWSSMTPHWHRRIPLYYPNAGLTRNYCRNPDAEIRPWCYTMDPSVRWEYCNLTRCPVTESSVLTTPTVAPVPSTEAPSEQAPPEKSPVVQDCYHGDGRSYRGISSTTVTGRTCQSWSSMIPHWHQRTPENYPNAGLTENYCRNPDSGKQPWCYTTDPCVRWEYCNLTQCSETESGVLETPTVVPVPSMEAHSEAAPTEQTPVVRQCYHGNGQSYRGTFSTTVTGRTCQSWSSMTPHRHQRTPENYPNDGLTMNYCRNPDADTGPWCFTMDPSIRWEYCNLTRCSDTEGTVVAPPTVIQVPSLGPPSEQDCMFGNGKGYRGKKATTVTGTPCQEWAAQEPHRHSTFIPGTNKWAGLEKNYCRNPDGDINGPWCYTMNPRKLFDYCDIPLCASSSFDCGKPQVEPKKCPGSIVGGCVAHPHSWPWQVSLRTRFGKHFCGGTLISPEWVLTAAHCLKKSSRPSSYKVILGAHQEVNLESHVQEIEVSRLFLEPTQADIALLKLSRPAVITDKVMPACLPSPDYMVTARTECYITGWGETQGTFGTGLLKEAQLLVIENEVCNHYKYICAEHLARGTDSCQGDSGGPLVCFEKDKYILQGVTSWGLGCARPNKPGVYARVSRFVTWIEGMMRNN

Compound | IC50 [1] [nM] | AUC [2, 4] [ng·h/mL] | half-life [2, 4] [h] | bioavailability ([2]; po) [%] | AUC [2, 5] [ng·h/mL] | Cmax [2, 5] [ng/mL] | half-life [2, 5] [h] | Lp(a) Inhibition Rate (serum Lp(a); [6]) [%] | Lp(a) Inhibition Rate (serum Lp(a); 30 mg/kg oral once daily for 3 days) [%] | compound-related changes in clinical observation, body weight, food consumption, hematology, blood biochemistry, urine, organ weight, histopathology [3]
O=C(O)[C@@H](Cc1cccc(CC(=O)N(CCOc2cccc(C[C@H](C(=O)O)[C@H]3CCNC3)c2)Cc2cccc(C[C@H](C(=O)O)[C@H]3CCNC3)c2)c1)[C@H]1CCNC1 [Compound 96, (S)-3-(3-(2-((3-((S)-2-carboxy-2-((R)-pyrrolidin-3-yl)ethyl)benzyl)(2-(3-((S)-2-carboxy-2-((R)-pyrrolidin-3-yl)ethyl)phenoxy)ethyl)amino)-2-oxoethyl)phenyl)-2-((R)-pyrrolidin-3-yl)propanoic acid] | 0.58 | 22900 | 23.3 | 13.9 | 12400 | 919 | 11.4 | 91 | 96 | 
O=C(O)[C@@H](Cc1cccc(CN(CCOc2cccc(C[C@H](C(=O)O)[C@H]3CCNC3)c2)C(=O)Nc2cccc(C[C@H](C(=O)O)[C@H]3CCNC3)c2)c1)[C@H]1CCNC1 [Compound 131, (S)-3-(3-(3-(3-((S)-2-carboxy-2-((R)-pyrrolidin-3-yl)ethyl)benzyl)-3-(2-(3-((S)-2-carboxy-2-((R)-pyrrolidin-3-yl)ethyl)phenoxy)ethyl)ureido)phenyl)-2-((R)-pyrrolidin-3-yl)propanoic acid] | 1.19 | 31300 | 33.7 | 13.2 | 14300 | 893 | 16 | 81 |  | 
O=C(O)[C@@H](Cc1cccc(CC(=O)N(CCCOc2cccc(C[C@H](C(=O)O)[C@H]3CCNC3)c2)Cc2cccc(C[C@H](C(=O)O)[C@H]3CCNC3)c2)c1)[C@H]1CCNC1 [Compound 159, (S)-3-(3-(2-((3-((S)-2-carboxy-2-((R)-pyrrolidin-3-yl)ethyl)benzyl)(3-(3-((S)-2-carboxy-2-((R)-pyrrolidin-3-yl)ethyl)phenoxy)propyl)amino)-2-oxoethyl)phenyl)-2-((R)-pyrrolidin-3-yl)propanoic acid] | 1.68 | 33400 | 35.5 | 13.5 | 21000 | 874 | 28.9 | 84 |  | 
O=C(O)[C@@H](Cc1cccc(COCCN(Cc2cccc(C[C@H](C(=O)O)[C@H]3CCNC3)c2)C(=O)Cc2cccc(C[C@H](C(=O)O)[C@H]3CCNC3)c2)c1)[C@H]1CCNC1 [Compound 160, (S)-3-(3-(2-((3-((S)-2-carboxy-2-((R)-pyrrolidin-3-yl)ethyl)benzyl)(2-((3-((S)-2-carboxy-2-((R)-pyrrolidin-3-yl)ethyl)benzyl)oxy)ethyl)amino)-2-oxoethyl)phenyl)-2-((R)-pyrrolidin-3-yl)propanoic acid] | 1.37 | 19200 | 12.1 | 15.9 | 23500 | 816 | 28.8 | 83 |  | 
O=C(O)[C@@H](Cc1cccc(CC(=O)N(CCOc2cccc(C[C@H](C(=O)O)[C@H]3CCNC3)c2)Cc2cc(C[C@H](C(=O)O)[C@H]3CCNC3)cs2)c1)[C@H]1CCNC1 [Compound 177, (S)-3-(3-(2-((2-(3-((S)-2-carboxy-2-((R)-pyrrolidin-3-yl)ethyl)phenoxy)ethyl)((4-((S)-2-carboxy-2-((R)-pyrrolidin-3-yl)ethyl)thiophen-2-yl)methyl)amino)-2-oxoethyl)phenyl)-2-((R)-pyrrolidin-3-yl)propanoic acid] | 1.26 |  |  |  |  |  |  | 90 |  | 
O=C(O)[C@@H](Cc1cccc(CN(Cc2cccc(C[C@H](C(=O)O)[C@H]3CCNC3)c2)Cc2cccc(C[C@H](C(=O)O)[C@H]3CCNC3)c2)c1)[C@H]1CCNC1 [LY3473329, reference compound] |  | 8820 | 9.8 | 10.1 | 4460 | 629 | 7.4 |  |  | no changes
